{"source": "paper PMC10092485", "about": "“Sialic Acid 4‐N‐Piperazine and Piperidine Derivatives Bind with High Affinity to the P. mirabilis Sialic Acid Sodium Solute Symporter” (Chemmedchem, 2022)", "type_in_all_cases": "binding", "key": {"PmSiaT [1]": {"biological_target": "T1, PmSiaT (Proteus mirabilis, UniProt B4EZY7)", "T1 construct": "gene siaT; detergent-solubilised transporter in DDM; extinction coefficient 76,445", "T1 sequence (B4EZY7 whole entry)": "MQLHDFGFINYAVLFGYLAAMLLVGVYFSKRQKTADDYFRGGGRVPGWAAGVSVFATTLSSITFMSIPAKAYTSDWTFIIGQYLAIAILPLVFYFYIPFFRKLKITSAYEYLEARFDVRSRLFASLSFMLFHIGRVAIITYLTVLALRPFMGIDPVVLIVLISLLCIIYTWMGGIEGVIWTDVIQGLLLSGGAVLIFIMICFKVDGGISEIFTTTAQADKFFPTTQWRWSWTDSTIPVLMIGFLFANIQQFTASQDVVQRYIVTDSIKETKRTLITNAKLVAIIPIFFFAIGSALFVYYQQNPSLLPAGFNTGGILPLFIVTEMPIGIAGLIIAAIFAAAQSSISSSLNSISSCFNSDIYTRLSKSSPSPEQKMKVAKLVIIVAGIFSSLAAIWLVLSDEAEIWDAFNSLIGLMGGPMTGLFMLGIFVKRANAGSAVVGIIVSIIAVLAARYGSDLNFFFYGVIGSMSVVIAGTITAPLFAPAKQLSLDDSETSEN", "experiment": "isothermal titration calorimetry", "settings": "25 °C; 50 mM Tris-HCl, 150 mM NaCl, 0.0174 % DDM, pH 8.0 (at 5 °C); n fixed to 1", "description": "isothermal titration calorimetry on PmSiaT"}, "PmSiaT [2]": {"biological_target": "T1, PmSiaT", "experiment": "nanoDSF thermal shift", "settings": "PBS, 0.0174 % DDM, 2 μM protein, 1.25 mM ligand; shift counted from the Neu5Ac complex"}, "PmSiaT [3]": {"biological_target": "T1, PmSiaT", "experiment": "nanoDSF thermal shift", "settings": "PBS, 0.0174 % DDM, 2 μM protein, 1.25 mM ligand; reference ligand for all shifts"}}, "data": [{"smiles": "CC(=O)N[C@H]1[C@H]([C@H](O)[C@H](O)CO)OC(O)(C(=O)O)C[C@@H]1N1CCC(c2cccc(Br)c2)CC1", "note": "(stereo partly drawn) [3 f, 5‐Acetamido‐4‐[4‐(3‐bromophenyl)piperidin‐1‐yl]‐3,4,5‐ trideoxy‐D‐glycero‐β‐D‐galacto‐nonulosonic acid]", "values": [{"measurement": "Kd", "setting": "PmSiaT [1]", "result": 1.32, "unit": "µM"}]}, {"smiles": "CC(=O)N[C@H]1[C@H]([C@H](O)[C@H](O)CO)OC(O)(C(=O)O)C[C@@H]1N1CCC(c2ccc(Br)cc2)CC1", "note": "(stereo partly drawn) [3 g, 5‐Acetamido‐4‐[4‐(4‐bromophenyl)piperidin‐1‐yl]‐3,4,5‐ trideoxy‐D‐glycero‐β‐D‐galacto‐nonulosonic acid]", "values": [{"measurement": "ΔT m (relative to Neu5Ac)", "setting": "PmSiaT [2]", "result": "piperidine or piperazine‐linked halogenated aromatic residues showed the largest thermal stabilizations"}]}, {"smiles": "CC(=O)N[C@H]1[C@H]([C@H](O)[C@H](O)CO)OC(O)(C(=O)O)C[C@@H]1N1CCC(c2cccc(C(F)(F)F)c2)CC1", "note": "(stereo partly drawn) [3 h, 5‐Acetamido‐3,4,5‐ trideoxy‐4‐[4‐(3‐trifluoromethylphenyl)piperidin‐1‐yl]‐D‐glycero‐β‐D‐galacto‐nonulosonic acid]", "values": [{"measurement": "ΔT m (relative to Neu5Ac)", "setting": "PmSiaT [2]", "result": "piperidine or piperazine‐linked halogenated aromatic residues showed the largest thermal stabilizations"}]}, {"smiles": "CC(=O)N[C@H]1[C@H]([C@H](O)[C@H](O)CO)OC(O)(C(=O)O)C[C@@H]1N1CCC(c2cccc(O)c2)CC1", "note": "(stereo partly drawn) [3 i, 5‐Acetamido‐4‐[4‐(3‐hydroxyphenyl)piperidin‐1‐yl]‐3,4,5‐ trideoxy‐D‐glycero‐β‐D‐galacto‐nonulosonic acid]", "values": [{"measurement": "Kd", "setting": "PmSiaT [1]", "result": 17.9, "unit": "µM"}]}, {"smiles": "CC(=O)N[C@H]1[C@H]([C@H](O)[C@H](O)CO)OC(O)(C(=O)O)C[C@@H]1N1CCN(C(=O)c2cccc(Cl)c2Cl)CC1", "note": "(stereo partly drawn) [6 c, 5‐Acetamido‐4‐[4‐(2,3‐dichlorobenzoyl)piperazin‐1‐yl]‐3,4,5‐ trideoxy‐D‐glycero‐β‐D‐galacto‐nonulosonic acid]", "values": [{"measurement": "Kd", "setting": "PmSiaT [1]", "result": 0.47, "unit": "µM"}]}, {"smiles": "CC(=O)N[C@H]1[C@H]([C@H](O)[C@H](O)CO)OC(O)(C(=O)O)C[C@@H]1O", "note": "(stereo partly drawn) [Neu5Ac]", "values": [{"measurement": "ΔT m", "setting": "PmSiaT [3]", "result": "The ΔT m reported are given in °C and relative to Neu5Ac"}]}]}
